Source: paper PMC8591608, “DNDI-6148: A Novel Benzoxaborole Preclinical Candidate for the Treatment of Visceral Leishmaniasis” (Journal of Medicinal Chemistry, 2021)

What was measured:
[1] = system: L. infantum and L. donovani; assay: Hamster models of infection (summary statement); conditions: in vivo efficacy in hamster models of infection
Description: Female golden hamsters were randomly allocated to experimental groups of six animals each, based on body weight. At the start of the experiment (Day 0), each animal was infected with L. infantum or L. donovani inoculum, delivered by intracardial injection. Six hamsters were assigned to the vehicle-treated, infected control group. Six hamsters were assigned per group (1 group/compound) for the evaluation of compound and miltefosine. At Day 21 postinfection (21 dpi), all animals in each group were dosed orally for five (or ten) consecutive days (21–25 dpi): compound was dosed at 25–50 mg/kg b.i.d.; miltefosine was dosed at 40 mg/kg q.d. At Day 35 (10 days after the final oral dose), all animals were euthanized and autopsies were conducted. The study evaluated the following parameters. • 1. Adverse effects: all animals were observed daily for the occurrence/presence of adverse effects. • 2. […] Parasite burden: amastigote burdens in each target organ (liver, spleen, and bone marrow) were determined at Day 35. […] Impression smears were stained with Giemsa for microscopic examination of the total amastigote burden, defined as the mean number of amastigotes per cell multiplied by the number of cells counted (minimum 500 nuclei); the results were expressed as a percentage reduction in amastigote burden compared to vehicle-treated, infected control animals.

[2] = Metabolite identification in microsomes; type: in vitro ADME, rat, mouse, dog, human, hamster
Procedure: Metabolite identification studies were conducted at WuXi AppTec, China. DNDI-6148 was incubated at 10 μM in the presence of Beagle dog and Sprague-Dawley rat liver microsomes (1 mg/mL) for 60 min. Following precipitation with a solution of formic acid and acetonitrile, metabolites were identified by LC-UV-MSn (n = 1–2).

[3] = Plasma-protein binding, rat; type: in vitro ADME; conditions: Sprague-Dawley, pH 7.4
Procedure: (§1) Tests were conducted by WuXi AppTec, Co., China, using the equilibrium dialysis method and a 96-well plate format. The test compound (at 2 μM, in triplicate) in solution in plasma (Balb/c mouse, golden (Syrian) hamster, Sprague-Dawley rat, Beagle dog or human) was dialyzed against 100 mM phosphate-buffered saline (pH 7.4) on a rotating plate incubated for 6 h at 37 °C. Following the precipitation of protein with acetonitrile or acetonitrile/methanol containing both 1% phosphoric acid, the amount of compound present in each compartment was quantified by LC-MS/MS.

[4] = Plasma-protein binding, hamster; type: in vitro ADME; conditions: golden (Syrian), pH 7.4
Procedure: as §1

MDR1 = assay: in vitro; type: in vitro ADME; conditions: dog
Procedure: Bidirectional permeability tests with MDCK-MDR1 cells were performed by WuXi AppTec, Co., China. The test compound, at a concentration of 2 μM in 0.4% DMSO/HBSS buffer with 10 mM HEPES pH 7.4, was applied to the apical or basolateral side of the cell monolayer. Permeation of the compound from A to B direction or B to A direction was determined in triplicate over a 150 min incubation at 37 °C and 5% CO2 (95% humidity). Test and reference compounds were quantified by LC-MS/MS analysis based on the peak area ratio of analyte/internal standard.

[5] = Liver microsome stability, rat; type: in vitro ADME; conditions: Sprague-Dawley, rat liver microsomes, pH 7.4
Procedure: (§2) Tests were performed by WuXi AppTec, China. Test compounds (at 1 μM) or positive controls (testosterone, propafenone, and diclofenac) were incubated at 37 °C with liver microsomes from Balb/c mouse, golden (Syrian) hamster, Sprague-Dawley rat, Beagle dog, or human in the presence of a NADPH regenerating system and phosphate buffer (100 mM, pH 7.4) at 0.4 or 0.8 mg/mL microsomal protein. The samples were removed at time intervals from 0 to 60, 90, or 120 min and immediately mixed with cold methanol supplemented or not with acid (3% formic acid) and centrifuged prior to analysis by LC-MS/MS using tolbutamide or propranolol as internal standards.

[6] = Liver microsome stability, dog; type: in vitro ADME; conditions: Beagle, dog liver microsomes, pH 7.4
Procedure: as §2

[7] = Hepatocyte stability, rat; type: in vitro ADME; conditions: Sprague-Dawley, cryopreserved rat hepatocytes
Procedure: Tests were performed by WuXi AppTec, China. Following a viability check of cryopreserved hepatocytes from Sprague-Dawley rat, Beagle dog, or human, test compounds (at 1 μM) or positive controls 7-ethoxycoumarin and 7-hydroxycoumarin (at 3 μM) were incubated at 37 °C, 5% CO2 with hepatocytes in Williams’ Medium E. Following incubation of 15, 30, 60, 90, 120, 180, and 240 min, reactions were stopped by the addition of acetonitrile, the samples were centrifuged, and LC-MS/MS analysis was conducted using tolbutamide as an internal standard.

[8] = system: wild-type T. brucei trypanosomes; assay: Drug sensitivity, wild-type T. brucei; type: cell-based; conditions: Trypanosoma brucei
Procedure: (§3) The clonal L. donovani cell line LdBOB (derived from MHOM/SD/62/1S-CL2D) was grown as promastigotes at 28 °C, as described previously. Bloodstream form T. brucei MiTat 1.2 clone 221a and its derived subline, 2T1, were cultured at 37 °C in the presence of 5% CO2 in HMI9-T medium, as described previously. T. brucei cell lines overexpressing CPSF3 and overexpressing a mutated version of CPSF3 (Asn232His) were generated as part of a previous study and cultured as described.[19]
(§4) Drug sensitivity assays with wild-type and transgenic T. brucei and L. donovani cell lines were carried out as previously described.[31],[32]

[9] = system: CPSF3 (Asn219His)-overexpressing L. donovani promastigotes; assay: Drug sensitivity, CPSF3 (Asn219His)-overexpressing L. donovani promastigotes; type: cell-based; conditions: Leishmania donovani
Procedure: as §3
L. donovaniCPSF3 gene (LdBPK_343210.1) was custom synthesized by GeneArt and ligated into the pIR1SAT vector via BglII restriction sites. Using the Q5 mutagenesis kit (NEB) and the pIR1SAT-LdCPSF3^WT construct as a template, mutations encoding A655C and Asn219His change to CPSF3^WT were introduced. Mutations were introduced using the specific primers 5′-GAGTACACGGCATCCGC-3′ and 5′-[…]-3′ and as per manufacturers’ instructions. Wild-type and mutated pIR1SAT constructs were digested with SwaI and transfected into L. donovani promastigotes, as previously described. Resistant clones were selected with nourseothricin (100 μg/mL), and two clones per transfection were selected for further study.
as §4

in vivo = conditions: both, Sprague-Dawley, rat

SMILES | reduction in parasite burden [1] [%] | reactive metabolite formation ([2]; microsomes, any species) | metabolism in rat microsomes ([2]; rat microsomes) | fraction unbound at 6 h, 2 µM [3] | fraction unbound at 6 h, 2 µM [4] | Papp A→B at 150 min, 2 μM (MDR1; MDCK-MDR1, pH 7.4) [×10⁻⁶ cm/s] | Papp B→A at 150 min, 2 μM (MDR1; MDCK-MDR1, pH 7.4) [×10⁻⁶ cm/s] | efflux ratio at 150 min, 2 μM (MDR1; MDCK-MDR1, pH 7.4) | efflux ratio at 2.5 h, 2 µM (MDR1; MDCK-MDR1, pH 7.4) | recovery at 150 min, 2 μM (MDR1; MDCK-MDR1, pH 7.4, Mean total recovery A to B) [%] | recovery at 150 min, 2 μM (MDR1; MDCK-MDR1, pH 7.4, Mean total recovery B to A) [%] | microsomal CLint at 1 μM [5] [µL/min/mg] | microsomal CLint at 1 μM [6] [µL/min/mg] | hepatocyte CLint at 1 μM [7] [µL/min/1e6 cells] | EC50 ([8]; Figure 2A) [nM] | EC50 ([8]; Figure 2B) [nM] | EC50 [9] [nM] | NOAEL at 14 days (in vivo) [mg/kg]
Cc1c(C(=O)Nc2ccc3c(c2)B(O)OC3)nnn1-c1ccccn1 [Compound 23, N-(1-Hydroxy-1,3-dihydrobenzo[c][1,2]oxaborol-6-yl)-5-methyl-1-(pyridin-2-yl)-1H-1,2,3-triazole-4-carboxamide] | > 98 | no evidence of reactive metabolite formation | No metabolism was detected | 0.08 | 0.12 | 17.1 | 11.6 | 0.68 | 0.7 | 71.1 | 87.8 | < 11.9 | 5.8 | 0.7 | 47 ± 0.9 | 67 ± 1 | 1670 ± 51 | –
Cc1c(-c2ccccn2)coc1C(=O)Nc1ccc2c(c1)B(O)OC2 [Compound 28, N-(1-Hydroxy-1,3-dihydrobenzo[c][1,2]oxaborol-6-yl)-3-methyl-4-(pyridin-2-yl)furan-2-carboxamide] | – | – | – | – | – | – | – | – | – | – | – | – | – | – | – | – | – | < 12.5
